We go through two compounds from patent publication US9242963B2, “Organic compounds” (NOVARTIS AG, priority 2008, dated 2016).

Assay [1] addresses T1, CYP11B1 (steroid 11-hydroxylase) (Homo sapiens, UniProt P15538).
T1 construct: the NCI-H295R cells have CYP11B2 (aldosterone synthase) and CYP11B1 (steroid 11-hydroxylase); host or cells: NCI-H295R
T1 sequence (P15538 25-503): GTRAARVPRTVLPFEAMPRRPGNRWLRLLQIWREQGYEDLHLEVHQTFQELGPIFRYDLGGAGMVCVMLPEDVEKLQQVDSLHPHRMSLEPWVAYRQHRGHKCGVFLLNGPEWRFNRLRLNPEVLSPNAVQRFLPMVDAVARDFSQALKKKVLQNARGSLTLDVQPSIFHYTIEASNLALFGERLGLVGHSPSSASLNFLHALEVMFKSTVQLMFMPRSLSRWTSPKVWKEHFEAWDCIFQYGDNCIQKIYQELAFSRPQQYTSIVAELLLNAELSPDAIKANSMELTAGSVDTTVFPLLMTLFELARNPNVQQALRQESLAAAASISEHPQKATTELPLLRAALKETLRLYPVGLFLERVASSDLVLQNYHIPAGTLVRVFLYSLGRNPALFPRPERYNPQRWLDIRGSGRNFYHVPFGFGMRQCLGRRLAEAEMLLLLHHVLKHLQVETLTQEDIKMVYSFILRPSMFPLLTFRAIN
Nature of the assay: Cortisol cell secretion in NCI-H295R cells. Type of assay: cell-based. Conditions: 24 hours incubation with cell stimulant. An excerpt: (§1) The activities of a compound according to the present invention can be assessed by the following in vitro method well-described in the art.
(§2) In particular, the inhibition of aldosterone and cortisol secretion in vitro can be determined by the following assay.
(§3) The cell line NCI-H295R was originally isolated from an adrenocortical carcinoma and has been characterized in the literature through the stimulable secretion of steroid hormones and the presence of the enzymes essential for steroidogenesis. […]
(§4) For in vitro measurement of aldosterone and cortisol activity, human adrenocortical carcinoma NCI-H295R cells are seeded in NBS 96-well plates at a density of 25,000 cells/well in 100 μL of a growth medium containing DMEM/F12 supplemented with 10% FCS, 2.5% Nu-serum, 1 μg ITS/ml, and 1× antibiotic/antimycotic. […] At the end of incubation, the excretion of aldosterone and cortisol into the culture medium can be detected and quantified by commercially available, specific monoclonal antibodies in radioimmunoassays in accordance with the manufacturer's instructions.
(§5) Measurement of aldosterone can also be performed using a 96-well plate format. […] The amount of aldosterone in each sample is calculated by comparing with a standard curve generated using known quantities of the hormone. […]

Assay [2] deals with T2, CYP11B2 (aldosterone synthase) (Homo sapiens, UniProt P19099).
T2 construct: the NCI-H295R cells have CYP11B2 (aldosterone synthase) and CYP11B1 (steroid 11-hydroxylase); host or cells: NCI-H295R
T2 sequence (P19099 25-503): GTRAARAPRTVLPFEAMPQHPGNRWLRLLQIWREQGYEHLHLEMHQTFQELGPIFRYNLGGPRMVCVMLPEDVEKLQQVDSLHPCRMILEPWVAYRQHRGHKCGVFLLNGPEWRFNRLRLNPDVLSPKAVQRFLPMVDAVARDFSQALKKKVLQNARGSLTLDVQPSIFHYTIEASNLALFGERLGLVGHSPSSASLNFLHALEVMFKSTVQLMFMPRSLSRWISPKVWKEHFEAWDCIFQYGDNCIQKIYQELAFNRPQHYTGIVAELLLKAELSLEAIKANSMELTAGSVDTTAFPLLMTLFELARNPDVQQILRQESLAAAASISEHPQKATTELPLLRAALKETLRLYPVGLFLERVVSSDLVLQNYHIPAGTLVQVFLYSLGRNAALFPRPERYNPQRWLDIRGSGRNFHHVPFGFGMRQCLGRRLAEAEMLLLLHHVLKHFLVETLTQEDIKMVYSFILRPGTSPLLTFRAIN
In words: Aldosterone cell secretion in NCI-H295R cells. The settings on record: 24 hours incubation with cell stimulant. Type of assay: cell-based.
Source text: as §1, §2, §3, §4, §5

For `CCS(=O)(=O)NC(C)c1cncc(-c2c(C#N)c3ccc(Cl)cc3n2C)c1` (racemic) [216 (one enantiomer), (R) and (S)-ethanesulfonic acid {1-[5-(6-chloro-3-cyano-1-methyl-1H-indol-2-yl)-pyridin-3-yl]-ethyl}-amide], the IC50 worked out at 600 nM in assay [1] and 32 nM in assay [2].

For `CCS(=O)(=O)NC(C)c1cncc(-c2c(C#N)c3ccc(Cl)cc3n2C)c1` (racemic) [216 (other enantiomer), (R) and (S)-ethanesulfonic acid {1-[5-(6-chloro-3-cyano-1-methyl-1H-indol-2-yl)-pyridin-3-yl]-ethyl}-amide], the IC50 in assay [1] turned out to be 1230 nM; in assay [2] it was 35 nM.
